These results are taken from PubChem BioAssay (NCI).

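Compound exposure: 48 hours, 5 concentrations, 96-well plates. At the GI50, growth is halved. At the TGI there is no net growth.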

Some test systems named below: HL-60(TB) leukemia; K-562 leukemia; KM12 colon; LOX IMVI melanoma; MOLT-4 leukemia; NCI-H460 lung; SF-539 CNS; SK-MEL-28 melanoma; SN12C renal; UACC-62 melanoma.
Common to all, as to assay: inhibition of tumour cell growth, NCI panel, 48 h

Turning to `COc1ccc(C2c3cc4c(cc3OC(O)(CO)C2C(=O)O)OCO4)cc1` (stereo unspecified) (tested in a mixture with another compound), the TGI was found to be 41.7 µM in the test on HL-60(TB) leukemia; 40.2 µM in the test with K-562 leukemia; 67.2 µM with KM12 colon; 30.1 µM with LOX IMVI melanoma; 57.8 µM in the test with MOLT-4 leukemia; 36.3 µM in the test on NCI-H460 lung. Besides, the TGI was determined as 43.6 µM with SF-539 CNS, 43.8 µM in the test with SK-MEL-28 melanoma, 54.1 µM in the test with SN12C renal and 36.4 µM with UACC-62 melanoma.

Consider `Nc1ccc(-c2nc3cc(F)ccc3s2)cc1CO`, for which the TGI in the test on HL-60(TB) leukemia, with K-562 leukemia, with KM12 colon, with LOX IMVI melanoma, with MOLT-4 leukemia and in the test with NCI-H460 lung was more than 100 µM each time. Also, the TGI in the test with SF-539 CNS was 46.7 µM; with SK-MEL-28 melanoma it was more than 100 µM; in the test with SN12C renal it was more than 100 µM; in the test on UACC-62 melanoma it was more than 58.7 µM.

Regarding `COc1cc2c(cc1C)NC(=O)/C2=C/c1c(Cl)n(-c2ccccc2)c2ccccc12`, the TGI with HL-60(TB) leukemia is 22 µM; with K-562 leukemia, more than 100 µM; in the test with KM12 colon, more than 100 µM; in the test on LOX IMVI melanoma it was 27.8 µM; in the test with MOLT-4 leukemia it was 33.8 µM; in the test on NCI-H460 lung, 30.4 µM. The TGI with SF-539 CNS is 24.3 µM; in the test on SK-MEL-28 melanoma, more than 100 µM; in the test on SN12C renal, 23.6 µM; in the test on UACC-62 melanoma, 73.5 µM.

With `N#Cc1c(N)nc2c(c1-c1ccc(Br)cc1)CSc1ccccc1-2`, the TGI with HL-60(TB) leukemia is 98.5 µM; in the test on K-562 leukemia, more than 100 µM; in the test on KM12 colon it was more than 100 µM; with LOX IMVI melanoma, more than 100 µM; in the test with MOLT-4 leukemia, more than 100 µM; with NCI-H460 lung, more than 100 µM. In addition, the TGI in the test on SF-539 CNS is more than 100 µM; in the test with SK-MEL-28 melanoma, more than 100 µM; in the test with SN12C renal, more than 100 µM; with UACC-62 melanoma, 78.1 µM.

For `Nc1cc(N2CCOCC2)nc(=O)n1-c1ccc(Cl)cc1`, the TGI in the test on HL-60(TB) leukemia, in the test with K-562 leukemia, in the test on KM12 colon, in the test with LOX IMVI melanoma, in the test on MOLT-4 leukemia and in the test with NCI-H460 lung was more than 100 µM throughout. For the same molecule, the TGI in the test with SF-539 CNS, with SK-MEL-28 melanoma, with SN12C renal and with UACC-62 melanoma was more than 100 µM throughout.

For the molecule `CCOC(=O)C(=O)NCCCN1CCOCC1`, the TGI in the test on HL-60(TB) leukemia, in the test on K-562 leukemia, in the test with KM12 colon, in the test on LOX IMVI melanoma, in the test on MOLT-4 leukemia and with NCI-H460 lung was more than 100 µM each time. Also, the TGI in the test with SF-539 CNS, in the test with SK-MEL-28 melanoma, in the test on SN12C renal and with UACC-62 melanoma was more than 100 µM in each case.

With `Nc1ccc(Oc2ccc(C34CC5CC(C3)CC(c3ccc(Oc6ccc(N)cc6)cc3)(C5)C4)cc2)cc1`, the TGI with HL-60(TB) leukemia was more than 66.9 µM; in the test with K-562 leukemia, more than 100 µM; with KM12 colon, more than 45.4 µM; in the test with LOX IMVI melanoma, 20.1 µM; with MOLT-4 leukemia, more than 100 µM; with NCI-H460 lung, 22.6 µM. In addition, the TGI was 36.4 µM in the test on SF-539 CNS, more than 72.1 µM in the test on SK-MEL-28 melanoma, more than 55.2 µM in the test with SN12C renal and 27.3 µM with UACC-62 melanoma.

On to `CC(=O)c1ccc2c(c1)N(CCCN1CCN(CCO)CC1)c1ccccc1C2`, for which the TGI in the test on HL-60(TB) leukemia worked out at 29.2 µM; in the test with K-562 leukemia it was 30.1 µM; with KM12 colon, 31.1 µM; in the test on LOX IMVI melanoma, 29.6 µM; in the test on MOLT-4 leukemia, 35.2 µM; in the test on NCI-H460 lung, 31 µM. Besides, the TGI with SF-539 CNS worked out at 33.1 µM; with SK-MEL-28 melanoma, 23.8 µM; in the test on SN12C renal it was 31.2 µM; in the test with UACC-62 melanoma, 23 µM.

Take `C#C[C@]1(O)CC[C@H]2[C@@H]3CCC4=C/C(=N\OCCN(CC)CC)CC[C@]4(C)[C@H]3CC[C@@]21C`: the TGI with HL-60(TB) leukemia was determined as 3.42 µM; in the test with K-562 leukemia it was 11.9 µM; with KM12 colon it was 11.4 µM; in the test on LOX IMVI melanoma it was 13.1 µM; with MOLT-4 leukemia it was 1.04 µM; in the test with NCI-H460 lung it was 21 µM. For the same molecule, the TGI with SF-539 CNS was found to be 10.1 µM; in the test with SK-MEL-28 melanoma it was 25.8 µM; with SN12C renal, 46.8 µM; with UACC-62 melanoma, 11.3 µM.

Regarding `O=C1/C(=C\c2ccc(F)cc2)CCOc2c1ccc1ccccc21`, the TGI was more than 72.4 µM in the test with HL-60(TB) leukemia; more than 31.1 µM with K-562 leukemia; 31.5 µM in the test on KM12 colon; 38.4 µM in the test with LOX IMVI melanoma; more than 47.8 µM with MOLT-4 leukemia; 97.9 µM in the test on NCI-H460 lung. In addition, the TGI in the test on SF-539 CNS was 48.5 µM; in the test on SK-MEL-28 melanoma, more than 71.1 µM; in the test with SN12C renal, more than 89.2 µM; with UACC-62 melanoma, more than 100 µM. The GI50 in the test on LOX IMVI melanoma was 13 µM.

For `COC(OC)C1OC(CO)C(n2cc(F)c(=O)[nH]c2=O)C1O` (stereo unspecified), the TGI in the test with HL-60(TB) leukemia, in the test on K-562 leukemia, in the test on KM12 colon, in the test with LOX IMVI melanoma, in the test on MOLT-4 leukemia and in the test on NCI-H460 lung was more than 100 µM each time. Also, the TGI in the test on SF-539 CNS, in the test on SK-MEL-28 melanoma, with SN12C renal and in the test with UACC-62 melanoma was more than 100 µM throughout.

As to `COC(CN(C=O)[C@@H](c1ccc(Cl)cc1)c1cc2ccccc2o1)OC`, the TGI with HL-60(TB) leukemia is 46.3 µM; in the test on K-562 leukemia it was 53.6 µM; in the test with KM12 colon, 31.4 µM; in the test with LOX IMVI melanoma, 34.5 µM; with MOLT-4 leukemia, 40 µM; with NCI-H460 lung, 33.3 µM. Also, the TGI stood at 34.3 µM with SF-539 CNS, 34.5 µM in the test with SK-MEL-28 melanoma, 31.1 µM with SN12C renal and 29.7 µM in the test with UACC-62 melanoma.

On to `CCCCCOC(=O)c1cc2cc(CCl)ccc2oc1=O`, for which the TGI was 7.19 µM in the test with HL-60(TB) leukemia; more than 49.4 µM with K-562 leukemia; 31.2 µM in the test on KM12 colon; 34.5 µM in the test on LOX IMVI melanoma; more than 81.7 µM in the test on MOLT-4 leukemia; 34.9 µM in the test with NCI-H460 lung. The TGI was more than 93.3 µM with SF-539 CNS, 60.2 µM in the test on SK-MEL-28 melanoma, 28.1 µM with SN12C renal and 5.91 µM in the test on UACC-62 melanoma.
